# Assay results from PMC10714400, “Antimicrobial Peptide–Peptoid Hybrids with and without Membrane Disruption” (ACS Infectious Diseases, 2023).
# Where a SMILES comes first, the peptide text is derived from it. [ ]: non-standard residue; d: D form. Nleu = CC(C)CNCC(=O)O
# Legend:
# [1] = test system: human red blood cells (hRBC); experiment: Minimum hemolytic concentration (MHC); format: cell-based
# Description: We also measured minimal hemolysis concentrations (MHC) on human red blood cells by serial 2-fold dilution as an indication of toxicity against eukaryotic cells (Table 1).
# [2] = Circular dichroism, α-helical content; format: physicochemical; settings: 0.1 mg/mL; for CD %α with 5 mM DPC: 10 mM phosphate buffer pH 7.4, 5 mM DPC; for CD %α with 20% TFE: 10 mM phosphate buffer pH 7.4, 20% TFE
# A. baumannii ATCC19606 = settings: for MIC A. baumannii ATCC19606, full MH at pH 7.4 / MIC A. baumannii ATCC19606, full MH at pH 8.5: ATCC19606, 4 h
# Experimental: (§1) Antimicrobial activity was assayed for all the peptide–peptoids against P. aeruginosa PAO1, K. pneumoniae NCTC418, E. coli W3110, A. baumannii ATCC 19606, methicillin-resistant S. aureus COL (MRSA), and for selected peptides on P. aeruginosa PA14 and the polymyxin-B-resistant derivatives PA14 4.13, PA14 4.18, PA14 2P4, as well as the clinical isolates ZEM-1A and ZEM9A, K. pneumoniae OXA-48, S. aureus Newman, Enterobacter cloacae, Stenotrophomonas maltophilia, Burkholderia cenocepacia, and Staphylococus epidermidis. To determine the Minimal Inhibitory Concentration (MIC), the Broth Microdilution method was used.[72] A colony of bacteria was picked and grown in LB medium overnight at 37 °C.
# (§2) To each well was finally added 4 μL of the diluted bacterial suspension (see above), corresponding to approximately 5 × 10^5 CFU. For each test, two columns of the plate were kept for sterility control (medium only), growth control (medium with bacterial inoculum, no compound). The positive control, Polymyxin B (starting with a concentration of 16 μg/mL) in MH medium with bacterial inocula, was introduced in the two lines of the plate. The plates were incubated at 37 °C for ca. 18 h under static conditions. Next, 15 μL of 3-(4,5-dimethylthiazol-2-yl)-2,5-diphenyltetrazolium bromide (MTT)[73] (1 mg/mL in sterilized MilliQ deionized water) were added to each well, and the plates were incubated for 20–30 min at room temperature. The minimal inhibitory concentration (MIC) was defined as the lowest concentration of the compound that inhibits the visible growth of the tested bacteria (yellow) with the unaided eye.
# PA14 4.18 (pmrB) = settings: CSV; […] MH at pH 8.5
# Experimental: as §1, §2
# P. aeruginosa PAO1 = settings: for MIC P. aeruginosa PAO1, full MH at pH 7.4 / MIC P. aeruginosa PAO1, full MH at pH 8.5: PAO1, 4 h
# Experimental: as §1, §2
# K. pneumoniae NCTC418 = test system: K. pneumoniae NCTC418
# Experimental: as §1, §2
# PA14 2P4 (pmrB) = settings: CSV; […] MH at pH 8.5
# Experimental: as §1, §2
# E. coli W3110 = test system: E. coli W3110
# Experimental: as §1, §2
# PA14 4.13 (phoQ) = settings: […] MH at pH 8.5; for MIC P. aeruginosa PA14 4.13, […] MH at pH 8.5: CSV; for MIC P. aeruginosa PA14 4.13: Table S3
# Experimental: as §1, §2
# S. aureus COL (MRSA) = settings: for MIC S. aureus COL (MRSA), full MH at pH 7.4 / MIC S. aureus COL (MRSA), full MH at pH 8.5: 4 h
# Experimental: as §1, §2
# P. aeruginosa PA14 = settings: Table S3; […] MH at pH 8.5, 16-20 hours at 37 °C
# Experimental: as §1
# as §2, with “The plates were incubated at 37 °C for ca. 18 h under static conditions.” left out
# S. aureus Newman = settings: Table S3; […] MH at pH 8.5
# Experimental: as §1
# as §2, with “The plates were incubated at 37 °C for ca. 18 h under static conditions.” left out
structure (smiles),measurement,setting,value
CC(C)C[C@H](NC(=O)[C@H](CC(C)C)NC(=O)[C@H](CCCCN)NC(=O)[C@@H](N)CCCCN)C(=O)N[C@@H](CCCCN)C(=O)N[C@@H](CC(C)C)C(=O)N[C@@H](CC(C)C)C(=O)N[C@@H](CCCCN)C(=O)N(CC(=O)N(CC(=O)N(CC(N)=O)CC(C)C)CC(C)C)CC(C)C [EB3] (H-KKLLKLLK[Nleu][Nleu][Nleu]-NH2),Hemolysis,[1],none of them showed any measurable hemolysis
same,MHC,[1],>2000 µg/mL
same,CD %α with 5 mM DPC,"[2]; DichroWeb, Contin-LL",13%
same,CD %α with 20% TFE,"[2]; DichroWeb, Contin-LL",15%
same,CD %α with 5 mM DPC,[2]; Table S2,13%
same,CD %α with 20% TFE,[2]; Table S2,15%
same,"MIC A. baumannii ATCC19606, full MH at pH 7.4",A. baumannii ATCC19606; pH 7.4,>32 ug/mL
same,"MIC A. baumannii ATCC19606, full MH at pH 8.5",A. baumannii ATCC19606; pH 8.5,>32 ug/mL
same,MIC A. baumannii ATCC19606 […] 7.4,"A. baumannii ATCC19606; Table S2, […] MH, pH 7.4",32 mg/L
same,MIC A. baumannii ATCC19606 […] 8.5,"A. baumannii ATCC19606; Table S2, […] MH, pH 8.5",16 mg/L
same,MIC A. baumannii ATCC19606 Full MH 7.4,"A. baumannii ATCC19606; Table S2, full MH, pH 7.4",> 32 mg/L
same,MIC A. baumannii ATCC19606 Full MH 8.5,"A. baumannii ATCC19606; Table S2, full MH, pH 8.5",> 32 mg/L
same,"MIC P. aeruginosa PA14 4.18, […] MH at pH 8.5",PA14 4.18 (pmrB),8 ug/mL
same,"MIC P. aeruginosa PAO1, full MH at pH 7.4",P. aeruginosa PAO1; pH 7.4,>32 ug/mL
same,"MIC P. aeruginosa PAO1, full MH at pH 8.5",P. aeruginosa PAO1; pH 8.5,16 ug/mL
same,MIC P. aeruginosa PAO1 […] 7.4,"P. aeruginosa PAO1; Table S2, […] MH, pH 7.4",16 mg/L
same,MIC P. aeruginosa PAO1 […] 8.5,"P. aeruginosa PAO1; Table S2, […] MH, pH 8.5",4 mg/L
same,MIC P. aeruginosa PAO1 Full MH 7.4,"P. aeruginosa PAO1; Table S2, full MH, pH 7.4",> 32 mg/L
same,MIC P. aeruginosa PAO1 Full MH 8.5,"P. aeruginosa PAO1; Table S2, full MH, pH 8.5",16 mg/L
same,"MIC K. pneumoniae NCTC418, full MH at pH 7.4","K. pneumoniae NCTC418; NCTC418, 4 h, pH 7.4",>32 ug/mL
same,MIC K. pneumoniae NCTC418 […] 7.4,"K. pneumoniae NCTC418; Table S2, […] MH, pH 7.4",> 32 mg/L
same,MIC K. pneumoniae NCTC418 […] 8.5,"K. pneumoniae NCTC418; Table S2, […] MH, pH 8.5",16 mg/L
same,MIC K. pneumoniae NCTC418 Full MH 7.4,"K. pneumoniae NCTC418; Table S2, full MH, pH 7.4",> 32 mg/L
same,MIC K. pneumoniae NCTC418 Full MH 8.5,"K. pneumoniae NCTC418; Table S2, full MH, pH 8.5",32 mg/L
same,"MIC P. aeruginosa PA14 2P4, […] MH at pH 8.5",PA14 2P4 (pmrB),16 ug/mL
same,"MIC E. coli W3110, […] MH at pH 7.4",E. coli W3110; CSV,4 ug/mL
same,"MIC E. coli W3110, […] MH at pH 8.5",E. coli W3110; CSV,3 ug/mL
same,"MIC E. coli W3110, full MH at pH 7.4",E. coli W3110; CSV,>32 ug/mL
same,MIC E. coli W3110 […] 7.4,"E. coli W3110; Table S2, […] MH, pH 7.4",4 mg/L
same,MIC E. coli W3110 […] 8.5,"E. coli W3110; Table S2, […] MH, pH 8.5",2 to 4 mg/L
same,MIC E. coli W3110 Full MH 7.4,"E. coli W3110; Table S2, full MH, pH 7.4",> 32 mg/L
same,MIC E. coli W3110 Full MH 8.5,"E. coli W3110; Table S2, full MH, pH 8.5",16 mg/L
same,"MIC P. aeruginosa PA14 4.13, […] MH at pH 8.5",PA14 4.13 (phoQ),6 ug/mL
same,MIC P. aeruginosa PA14 4.13,PA14 4.13 (phoQ),4 to 8 mg/L
same,"MIC S. aureus COL (MRSA), full MH at pH 7.4",S. aureus COL (MRSA); pH 7.4,>32 ug/mL
same,"MIC S. aureus COL (MRSA), full MH at pH 8.5",S. aureus COL (MRSA); pH 8.5,32 ug/mL
same,MIC S. aureus COL (MRSA) […] 7.4,"S. aureus COL (MRSA); Table S2, […] MH, pH 7.4",32 mg/L
same,MIC S. aureus COL (MRSA) […] 8.5,"S. aureus COL (MRSA); Table S2, […] MH, pH 8.5",8 mg/L
same,MIC S. aureus COL (MRSA) Full MH 7.4,"S. aureus COL (MRSA); Table S2, full MH, pH 7.4",> 32 mg/L
same,MIC S. aureus COL (MRSA) Full MH 8.5,"S. aureus COL (MRSA); Table S2, full MH, pH 8.5",32 mg/L
same,MIC P. aeruginosa PA14,P. aeruginosa PA14,4 mg/L
same,MIC S. aureus Newman,S. aureus Newman,4 mg/L
"CC(C)CN(CC(N)=O)C(=O)CN(CC(C)C)C(=O)CN(CC(C)C)C(=O)[C@H](CCCCN)NC(=O)CN(CC(C)C)C(=O)CN(CC(C)C)C(=O)[C@H](CCCCN)NC(=O)CN(CC(C)C)C(=O)CN(CC(C)C)C(=O)[C@H](CCCCN)NC(=O)[C@@H](N)CCCCN [EB8, KKllKllKlll] (H-KK[Nleu][Nleu]K[Nleu][Nleu]K[Nleu][Nleu][Nleu]-NH2)",Hemolysis,[1],none of them showed any measurable hemolysis
same,MHC,[1],>2000 µg/mL
same,"MIC A. baumannii ATCC19606, full MH at pH 7.4",A. baumannii ATCC19606; pH 7.4,>32 ug/mL
same,"MIC A. baumannii ATCC19606, full MH at pH 8.5",A. baumannii ATCC19606; pH 8.5,16 ug/mL
same,"MIC P. aeruginosa PA14 4.18, […] MH at pH 8.5",PA14 4.18 (pmrB),32 ug/mL
same,"MIC P. aeruginosa PAO1, full MH at pH 7.4",P. aeruginosa PAO1; pH 7.4,>32 ug/mL
same,"MIC P. aeruginosa PAO1, full MH at pH 8.5",P. aeruginosa PAO1; pH 8.5,16 ug/mL
same,"MIC K. pneumoniae NCTC418, full MH at pH 7.4","K. pneumoniae NCTC418; NCTC418, 4 h, pH 7.4",>32 ug/mL
same,"MIC K. pneumoniae NCTC418, full MH at pH 8.5","K. pneumoniae NCTC418; NCTC418, 4 h, pH 8.5",16 ug/mL
same,"MIC P. aeruginosa PA14 2P4, […] MH at pH 8.5",PA14 2P4 (pmrB),32 ug/mL
same,"MIC E. coli W3110, […] MH at pH 7.4",E. coli W3110; CSV,8 ug/mL
same,"MIC E. coli W3110, […] MH at pH 8.5",E. coli W3110; CSV,3 ug/mL
same,"MIC E. coli W3110, full MH at pH 7.4",E. coli W3110; CSV,>32 ug/mL
same,"MIC E. coli W3110, full MH at pH 8.5","E. coli W3110; CSV, full MH at pH 8.5",8 ug/mL
same,MIC E. coli W3110 […] 8.5,"E. coli W3110; Table S2, […] MH, pH 8.5",2 to 4 mg/L
same,MIC E. coli W3110 […],"E. coli W3110; diluted MH ([…] MH, pH 8.5) per Table 1 footnote b, 16–20 h at 37 °C",8 mg/L
same,MIC E. coli W3110 Full,"E. coli W3110; full MH, pH 7.4, 16–20 h at 37 °C",>32 mg/L
same,"MIC P. aeruginosa PA14 4.13, […] MH at pH 8.5",PA14 4.13 (phoQ),24 ug/mL
same,MIC P. aeruginosa PA14 4.13,PA14 4.13 (phoQ),16 to 32 mg/L
same,"MIC S. aureus COL (MRSA), full MH at pH 7.4",S. aureus COL (MRSA); pH 7.4,>32 ug/mL
same,"MIC S. aureus COL (MRSA), full MH at pH 8.5",S. aureus COL (MRSA); pH 8.5,16 ug/mL
